In article PMC3511524, “Ant Trail Pheromone Biosynthesis Is Triggered by a Neuropeptide Hormone” (PLoS ONE, 2012):
Where two headings read alike, the source gives them in different places. Ends that are not written are not given here.

Molecular target: T1, SolinPBAN-R (Solenopsis invicta, UniProt L0APC6)
T1 sequence (L0APC6 1-605): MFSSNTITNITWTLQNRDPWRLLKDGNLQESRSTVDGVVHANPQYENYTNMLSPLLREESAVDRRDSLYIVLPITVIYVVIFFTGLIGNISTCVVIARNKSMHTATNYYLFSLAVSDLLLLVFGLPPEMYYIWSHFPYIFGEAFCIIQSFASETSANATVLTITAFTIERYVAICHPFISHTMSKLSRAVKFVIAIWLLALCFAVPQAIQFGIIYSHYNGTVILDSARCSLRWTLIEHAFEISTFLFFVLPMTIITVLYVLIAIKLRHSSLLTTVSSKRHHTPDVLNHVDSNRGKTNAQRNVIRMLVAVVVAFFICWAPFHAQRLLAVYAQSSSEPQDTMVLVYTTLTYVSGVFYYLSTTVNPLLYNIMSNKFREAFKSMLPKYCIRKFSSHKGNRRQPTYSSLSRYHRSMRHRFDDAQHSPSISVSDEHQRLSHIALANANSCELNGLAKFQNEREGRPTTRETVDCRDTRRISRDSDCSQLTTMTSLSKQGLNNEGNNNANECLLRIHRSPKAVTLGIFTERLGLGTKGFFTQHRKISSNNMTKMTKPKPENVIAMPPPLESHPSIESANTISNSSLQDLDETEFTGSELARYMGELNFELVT
Assay: SolinPBAN-R/peptide binding assay (calcium-based Fluo-4AM fluorescence in Sf9 cells expressing SolinPBAN-R)
Format: cell-based
Conditions: for EC50: SolinPBAN-R expressed in Sf9 cells, Fluo-4AM fluorescence relative to 1 µM ionomycin maximum, read-out: EC50 (half-maximal effective concentration), binding activity to SolinPBAN-R
Protocol: Poly(A) RNA was isolated from whole bodies and heads of S. invicta workers and mature female alates for synthesis cDNA as described previously. Synthesized cDNA was amplified with a degenerate primer set: 5′-[…]-3′ ([…]) and 5′-[…]-3′ ([…]) mostly conserved in TM2 and TM7 domains from insect PBAN-Rs [25]–[27]. PCR was performed for 35 cycles at 95°C for 30 s, 50°C for 30 s, and 72°C for 1 min. The PCR product was directly sequenced by Interdisciplinary Center for Biotechnology Research (ICBR, University of Florida), and then the sequence result was used to design further gene-specific primers to find 5′- and 3′- ends of the fire ant PBAN-R cDNA. 5′-RACE (GeneRacer kit, Invitrogen) was performed using primers 5′-[…]-3′ (from nucleotide 1106) and 5′-[…]-3′ (from nucleotide 588) by the 5′-RACE kit (Invitrogen). 3′-RACE was performed using primers 5′-[…] NTTYCA-3′ (from nucleotide 1199), 5′-[…] […]-3′ (from nucleotide 1336) and 5′-[…]-3′ (from nucleotide 1392). Then PCR products were inserted into a subcloning vector (TOPO-TA, Invitrogen) and confirmed the nucleotides by DNA sequence. Sequences of the receptor DNA and corresponding amino acids were analyzed by Genetyx software ver. 10 (Genetyx Corporation) and PredictProtein software. The ORF of PBAN-R cDNA was amplified using the sense primer of 5′- […] […]-3′ (from nucleotide 255 including the NotI site) and 5′-[…] […]-3′ (from nucleotide 2122 including the XbaI site). The PCR product was ligated into a pIBV5His vector (Invitrogen) for expression in Sf9 cells as described previously.
All peptides used in this study were synthesized or purchased from Sigma Genosys or Peninsula Laboratories. The preparation of cells, peptides, and Fluo-4AM with hymenopteran saline followed a previously described method. Cell fluorescence intensity in a 96-well cell-culture was measured using a plate reader (BMG's NovoStar) equipped with filters (excitation: 485 nm and emission: 520 nm), and one pipetter and two injectors. Fluorescence measurements from each well were taken every 10s. After 30s PBAN or FXPRL peptide (10 µL) was added by pipetter and fluorescent changes were measured for up to 3 min. Then, 1 µM ionomycin (5 µL) was added into the cells to obtain a maximum fluorescence reading. The effect of ligand-exposure was expressed relative to the maximum value obtained with ionomycin. Data were analyzed using Microsoft EXCEL as described previously and measured EC50 values of ligands were determined using GraphPad Prism 4.03 software.
The PBAN/pyrokinin family of peptides and their receptors are currently classified as PK1 or PK2. Diapause Hormone (DH) peptides and their receptors are classified as type PK1. PBAN and other PBAN family peptides, and their receptors are classified as type PK2 [12]. To verify our SolinPBAN-R assignment we determined binding affinities for a number of PK1 ( = DH type) and PK2 ( = PBAN type) neuropeptides to SolinPBAN-R (Table 1). We expressed SolinPBAN-R in Spodoptera frugiperda 9 (Sf9) insect cells, which enabled binding specificity studies by measurement of calcium-based fluorescence intensity (Fig. 3A and Table 1). […] The SolinPBAN/pyrokinin gene is expressed in all life stages in fire ant, from egg to adult; however, the disposition of the four SolinPBAN/pyrokinin peptides in each life stage, as well as the possibility of additional receptors is unknown and currently under investigation.

SVPFKPRL-NH2 [DromePK2]
EC50 (N≥4): 163 nM

GSGEDLSYGDAYEVDEDDHPLFVPRL-NH2 [SolinPBAN]
EC50 value times less than HelzePBAN (18 nM vs. 56 nM, Sf9 cells expressing SolinPBAN-R): 3 times | EC50 (N≥4): 18 nM

TSQDIASGMWFGPRL-NH2 [SolinDH]
EC50 (N≥4): 125 nM

NDVKDGAASGAHSDRLGLWFGPRL-NH2 [HelzePGN24 (DH)]
EC50: > 1000 nM

TGPSASSGLWFGPRL-NH2 [DromePK1]
EC50: > 1000 nM

LSDDMPATPADQEMYRQDPEQIDSRTKYFSPRL-NH2 [HelzePBAN]
EC50 (N≥4): 56 nM
